Reference: patent publication US6761884B1, “Vectors including foreign genes and negative selective markers” (The United States of America as represented by the …, priority 1991, dated 2004)

Key:
untransduced WP4 cells = assay: Ganciclovir killing of untransduced WP4 cells, methylene blue staining; assay type: cell-based, murine; settings: 24-well plate, ganciclovir 0.01-100 uM, stained at 5 to 7 days
Experimental: This example employs a clone (WP4) (Asher et al., J. Inmunol, Vol. 146, pg. 3227 (1991)) of a murine tumor cell line MCA205 (Wexler et al., J. Natl. Canc. Inst., Vol. 63, pg. 1393 (1979)) for assessing the utility of the HSV-TK gene in a “suicide” system.
Transduced “selected” cells are then plated in 24-well tissue culture plate at 1-2.5×10^4 cells per well. After 24 hrs. of culture, ganciclovir is added in concentrations ranging from 0.01-100 uM, the cells are monitored for growth and all wells are stained in methylene blue when the control wells (no ganciclovir added) are confluent (at 5 to 7 days). Complete killing of transduced selected cells is observed at concentrations from 0.1 to 1.0 uM of ganciclovir, while untransduced cells are killed at concentrations of 100 uM or greater.

[1] = test system: WP4 tumor cells containing the HSV-TK gene; assay: Subcutaneous tumors from WP4 cells containing the HSV-TK gene in mice, ganciclovir treatment; assay type: in vivo, C57BL/6 or BNX mice
Experimental: (§1) WP4 tumor cells form tumors in C57BL/6 or BNX mice when injected subcutaneously. The number of cells required for tumor formation will vary depending of the strain of mouse used. C57BL/6 mice require 5×10^6-1×10^7 cells for tumor formation in 10-14 days. BNX mice require 1-5×10^4 cells for tumor formation in 10-14 days. Tumor cells are suspended in PBS and injected subcutaneously into the hind flank in a 0.5 ml volume. Five to ten days after tumor inoculation, ganciclovir is administered intraperitoneally twice daily for 5 days. A 2-5 mg/ml solution of ganciclovir prepared in serum-free medium (RPMI 1640, DMEM, or other) is used to achieve a dose of 125-150 mg/kg. Animals are monitored and tumor measurements made twice weekly.
(§2) At the time of ganciclovir administration, tumors are palpable, but unmeasurable. Tumors arising from untransduced WP4 cells reach a size of 2.0-2.5 cm^3 in 40-45 days with or without ganciclovir administration. Tumor cells containing the HSV-TK gene initially form palpable tumors then regress completely and become undetectable within 10-20 days after the start of ganciclovir treatment. Complete, long term tumor ablation is observed in 60-80% of mice having received selected cells plus ganciclovir therapy.

[2] = test system: untransduced WP4 tumor cells; assay: Subcutaneous tumors from untransduced WP4 cells in mice, ganciclovir treatment; assay type: in vivo, C57BL/6 or BNX mice; settings: in 40-45 days, with or without ganciclovir administration (125-150 mg/kg i.p. twice daily for 5 days)
Experimental: as §1, §2

In the case of `Nc1nc(O)c2ncn(COC(CO)CO)c2n1` [ganciclovir], the “Concentration at which untransduced cells are killed” value (untransduced WP4 cells) is reported as ≥ 100 µM, the “Time after start of ganciclovir treatment by which tumors regress completely and become undetectable” value ([1]; 125-150 mg/kg intraperitoneally twice daily for 5 days, started 5-10 days after tumor inoculation) is reported as 10 to 20 days and the “Mice with complete, long term tumor ablation” value ([1]; mice having received selected cells plus ganciclovir therapy, 125-150 mg/kg i.p. twice daily for 5 days) is reported as 60-80%. For the same compound, the “Tumor size reached by tumors arising from untransduced WP4 cells” value [2] was 2.0-2.5 cm^3.
